Molecules are shown by their SMILES.

This assay has as its system dogs. Kind of assay: Two-bowl choice palatability test of pet foods. It is filed as in vivo. The protocol:
Palatability testing followed the industry standard protocol for assessing preference, i.e., the two-bowl choice test. The dogs were tested individually inside their kennels. The panels consisted of a mix of breeds, distributed as equally as possible. The dogs were at least 12 months of age and the sex distribution was as equal as possible within panels. A choice of two bowls each with the same amount food, the test and the control diets, was offered simultaneously. The maximum length of the time the products were offered to the dogs was 20 minutes. Water was available at all times via an automatic water system. Bowl assignment for the foods was always counterbalanced.
At the end of a test, food consumption for each pet food for each dog was determined by subtracting the amount of food remaining in the bowls from what was initially offered to the dogs. A dog's preference was determined based on which food was most consumed.
The experiment was repeated twice.

Consider `CCCCCCCC/C=C\CCCCCCCC(=O)NCCO` [OEA, N-oleoyl-ethanolamide], for which the “Effect of OEA on palatability of the pet food (result in words)” value (food of Table 9 (0.41% OEA in basal meal) vs control Ex 7) is recorded as “enhanced the palatability”. In addition, the “Effect of OEA on palatability of the pet foods (result in words)” value (foods of Table 8 (0.066-0.566% OEA) vs control Ex 1) is listed as “enhanced the palatability”.
